In US12419307B2, “Mixtures comprising indazole pesticides” (FMC Corporation, priority 2019, dated 2025):
Read-outs that look alike come from different tables or passages of the source.

Assays:
Assay type in all cases: in vivo
[1] = tested on: Western Flower Thrips (Frankliniella occidentalis Pergande); test: Test B: Western Flower Thrips control on bean plants, plant damage rating converted to % plant protection after 7 days; conditions: for pest or weed control at 0.4 ppm / pest or weed control at 2 ppm: Frankliniella occidentalis, 168 h, read-out: Plant Protection (obs); for Plant Damage (obs): Table 3a; for Plant Damage (obs) / Plant Protection (obs): applied alone
Summary of the method: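 Sprayed 5- to 7-day-old bean (var. Soleil) plants, 3 replicates, dried 1 h, then infested with 22 to 27 adult thrips and held 7 days at 25° C, 45-55% RH. Feeding damage rated 0-10 and converted as 100−(rating×10) to % plant protection.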

[2] = tested on: corn planthopper (Peregrinus maidis (Ashmead)); test: Test C: corn planthopper control on corn plants, insect mortality after 6 days; conditions: Peregrinus maidis, read-out: % Mortality (obs)
Summary of the method: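 3-4-day-old potted corn plants sprayed at 250, 50 and/or 10 ppm (contact/systemic), dried 1 h, then infested with ~15-20 nymphs 18-21 days old. Mortality scored after 6 days at 19-21 °C, 50-70% RH; mixture effects judged against Colby-expected mortality.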

[3] = tested on: cotton melon aphid (Aphis gossypii Glover); test: Test D: cotton melon aphid control on okra plants, insect mortality after 6 days; conditions: Aphis gossypii, read-out: % Mortality (obs)
Summary of the method: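 Okra plants (6–7 days old) pre-infested with 30–40 aphids by cut-leaf transfer were sprayed, three replicates, then held 6 days at 19-21° C and 50-70% RH before mortality scoring. Mixture enhancement was judged against Colby-expected % mortality.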

[4] = tested on: fall armyworm (Spodoptera frugiperda (J. E. Smith)); test: Test E: fall armyworm control on corn plants, plant damage rating and mortality after 6 days; conditions: Spodoptera frugiperda, 144 h, read-out: Plant Protection (obs)

Compound `O=C(NC1(C(F)F)CC1)c1cccc2nn(-c3cccnc3)cc12` [Cpd 5, N-[1-(difluoromethyl)cyclopropyl]-2-(3-pyridinyl)-2H-indazole-4-carboxamide] has a pest or weed control at 0.4 ppm ([1]; Table 3e, 0.4 ppm) of 70%, a pest or weed control at 2 ppm ([1]; Table 3e, 2 ppm) of 26.7% and a pest or weed control at 0.4 ppm ([1]; Table 3f, 0.4 ppm) of 33.3%. It also gave a pest or weed control at 2 ppm ([1]; Table 3f, 2 ppm) of 60%, a pest or weed control at 0.4 ppm ([1]; Table 3g, 0.4 ppm) of 13.3% and a pest or weed control at 2 ppm ([1]; Table 3g, 2 ppm) of 26.7%. The pest or weed control at 0.4 ppm ([1]; Table 3d, 0.4 ppm) was 43.3%, the pest or weed control at 2 ppm ([1]; Table 3d, 2 ppm) was 63.3% and the “Plant Damage (obs)” value ([1]; 0.4 ppm) was 20.0%. The “Plant Damage (obs)” value ([1]; 2 ppm) was 40.0%, the “Plant Protection (obs)” value ([1]; Table 3b, 0.4 ppm) was 23.3% and the “Plant Protection (obs)” value ([1]; Table 3b, 2 ppm) was 36.7%. For the same compound, the “Plant Protection (obs)” value ([1]; Table 3c, 0.4 ppm) was 16.7%, the “Plant Protection (obs)” value ([1]; Table 3c, 2 ppm) was 40.0% and the mortality at 50 ppm ([2]; 96 h, Table 4d) was 5.3%. The mortality at 250 ppm ([2]; 96 h, Table 4d) was 75%, the mortality at 50 ppm ([2]; Table 4e) was 21.6% and the mortality at 250 ppm ([2]; Table 4e) was 13.1%. For the same compound, the mortality at 50 ppm ([2]; Table 4f) was 15.3%, the mortality at 250 ppm ([2]; Table 4f) was 22.4% and the mortality at 50 ppm ([2]; Table 4g) was 15.3%. The mortality at 250 ppm ([2]; Table 4g) was 22.4%, the mortality at 0.12 ppm ([3]; 5 h, Table 5h) was 40% and the mortality at 0.18 ppm ([3]; 5 h, Table 5h) was 68.4%. For the same compound, the mortality at 0.12 ppm ([3]; 120 h, Table 5d) was 34%, the mortality at 0.18 ppm ([3]; 120 h, Table 5d) was 62.7% and the mortality at 0.12 ppm ([3]; Table 5a) was 34%. It also gave a mortality at 0.18 ppm ([3]; Table 5a) of 62.7%, a mortality at 0.12 ppm ([3]; Table 5b) of 34% and a mortality at 0.18 ppm ([3]; Table 5b) of 62.7%. For the same compound, the mortality at 0.12 ppm ([3]; Table 5c) was 73.3%, the mortality at 0.18 ppm ([3]; Table 5c) was 6.7% and the mortality at 0.12 ppm ([3]; Table 5e) was 32.2%. It also gave a mortality at 0.18 ppm ([3]; Table 5e) of 61.6%, a mortality at 0.12 ppm ([3]; Table 5f) of 44.9% and a mortality at 0.18 ppm ([3]; Table 5f) of 58.9%. For the same compound, the mortality at 0.12 ppm ([3]; Table 5g) was 25.8%, the mortality at 0.18 ppm ([3]; Table 5g) was 44.3% and the mortality at 0.12 ppm ([3]; Table 5i) was 41.6%. It also gave a mortality at 0.18 ppm ([3]; Table 5i) of 70.3%, a mortality at 0.12 ppm ([3]; Table 5j) of 41.6% and a mortality at 0.18 ppm ([3]; Table 5j) of 70.3%. For the same compound, the mortality at 0.12 ppm ([3]; Table 5k) was 35.9%, the mortality at 0.18 ppm ([3]; Table 5k) was 67.2% and the mortality at 0.12 ppm ([3]; Table 5l) was 35.9%. It also gave a mortality at 0.18 ppm ([3]; Table 5l) of 67.2%, a mortality at 0.12 ppm ([3]; Table 5m) of 37.3% and a mortality at 0.18 ppm ([3]; Table 5m) of 61.7%. The mortality at 0.12 ppm ([3]; Table 5n) was 48.9%, the mortality at 0.18 ppm ([3]; Table 5n) was 77.7% and the pest or weed control at 50 ppm ([4]; Table 6e) was 0%. The pest or weed control at 250 ppm ([4]; Table 6e) was 0%, the pest or weed control at 50 ppm ([4]; Table 6f) was 0% and the pest or weed control at 250 ppm ([4]; Table 6f) was 0%. The pest or weed control at 50 ppm ([4]; Table 6g) was 0%, the pest or weed control at 250 ppm ([4]; Table 6g) was 0% and the pest or weed control at 50 ppm ([4]; Table 6i) was 0%. It also gave a pest or weed control at 250 ppm ([4]; Table 6i) of 13.3%, a pest or weed control at 50 ppm ([4]; Table 6h) of 0% and a pest or weed control at 250 ppm ([4]; Table 6h) of 0%. It also gave a pest or weed control at 50 ppm ([4]; Table 6d) of 0% and a pest or weed control at 250 ppm ([4]; Table 6d) of 13.3%.
